According to PubChem BioAssay AID623929 (Vanderbilt Specialized Chemistry Center, 2012):

Biological target: Metabotropic glutamate receptor 2 (Rattus norvegicus) (UniProt P31421)
Test: PubChem AID 623929
Conditions: HEK293 GIRK rat mGlu2, thallium flux fluorescence

Sequence of Metabotropic glutamate receptor 2 (Rattus norvegicus) (P31421 whole entry, looked up): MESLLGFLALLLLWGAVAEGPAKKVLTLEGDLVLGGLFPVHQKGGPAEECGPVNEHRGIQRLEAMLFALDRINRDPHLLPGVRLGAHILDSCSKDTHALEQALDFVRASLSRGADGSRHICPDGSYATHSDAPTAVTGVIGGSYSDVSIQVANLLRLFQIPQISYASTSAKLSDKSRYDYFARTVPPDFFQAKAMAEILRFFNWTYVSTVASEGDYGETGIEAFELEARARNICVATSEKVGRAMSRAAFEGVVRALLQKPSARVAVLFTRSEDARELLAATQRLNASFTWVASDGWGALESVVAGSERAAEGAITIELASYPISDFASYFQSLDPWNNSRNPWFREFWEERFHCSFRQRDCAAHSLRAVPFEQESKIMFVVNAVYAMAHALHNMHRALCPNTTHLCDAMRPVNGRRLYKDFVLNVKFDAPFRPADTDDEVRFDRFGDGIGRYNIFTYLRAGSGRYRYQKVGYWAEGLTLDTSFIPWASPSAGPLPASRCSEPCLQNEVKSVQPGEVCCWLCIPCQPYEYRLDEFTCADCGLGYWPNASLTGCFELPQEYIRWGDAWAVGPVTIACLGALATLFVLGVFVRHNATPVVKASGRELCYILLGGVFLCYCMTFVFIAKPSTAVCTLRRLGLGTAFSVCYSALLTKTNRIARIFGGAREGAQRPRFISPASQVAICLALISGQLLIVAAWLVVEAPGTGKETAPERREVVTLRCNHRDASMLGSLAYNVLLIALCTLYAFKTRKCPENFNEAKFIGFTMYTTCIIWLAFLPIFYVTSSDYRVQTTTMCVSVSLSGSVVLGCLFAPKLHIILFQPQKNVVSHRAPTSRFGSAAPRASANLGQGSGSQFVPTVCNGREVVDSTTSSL

IC50 [µM]	Structure (SMILES)
10	COc1ccc(C#Cc2ccc(C(=O)N3CCC[C@H](CO)C3)cc2)cc1
10	COc1ccc(C#Cc2ccc(C(=O)N3CCCC(CO)C3)cc2)cc1 (stereo not drawn)
10	COc1ccc(C#Cc2ccc(C(=O)N3CCC[C@@H](CO)C3)cc2)cc1
